Experimental data taken from patent US20240368131A1, “OXOINDOLINYL AMIDE DERIVATIVES FOR INHIBITING NLRP3 AND USES THEREOF” (VENTUS THERAPEUTICS U.S. INC., priority 2022, published 2024).

Experiments:
Type in all cases: cell-based
human NLRP3 [1] = biological target: T1, human NLRP3 (Homo sapiens, UniProt Q96P20); assay: Human Whole Blood (hWB) NLRP3 Assay (IL-1β MSD); conditions: LPS 1 μg/ml 4.5 h, ATP 30 min, class symbols
Description: Human whole blood was drawn from healthy volunteers after obtaining written informed consent. Heparin lithium coated tubes were used to collect blood from volunteers. Blood samples were distributed on 96 well plates using 90 μl per well. Priming was performed by adding 5 μl of LPS (O26:B6; Sigma L-2654) at a final concentration of 1 μg/ml for 4.5 hours in a humidified incubator with 37° C., 5% CO2. Thirty minutes prior to NLRP3 activation, 5 μl of a 20× compound solution or vehicle (2% DMSO) was added to each well and plates were incubated on a shaker (450 rpm) in a humidified incubator with 37° C., 5% CO2. Activation was then performed by adding 3.3 μl of a 31× ATP solution per well. At the end of the 30 minutes stimulation, the plates were centrifuged (800 g, 10 min, room temperature) and the plasma from each well was frozen at −80° C. IL-1β levels in the supernatant were analyzed using a mesoscale discovery assay (MSD K151TUK) according to the manufacturers' instructions.
hWB IL-1β Assay: A represents an IC50 value <0.3 μM; B represents an IC50 value ≥0.3 μM and <0.5 μM; C represents an IC50 value ≥0.5 μM and <1.0 μM; D represents an IC50 value >1.0 μM.

mouse NLRP3 = biological target: T2, mouse NLRP3 (Mus musculus, UniProt Q8R4B8); assay: Mouse Whole Blood (mWB) NLRP3 Assay (IL-1β MSD); conditions: CD1 mouse whole blood, LPS 1 μg/mL 5 h, ATP 5 mM; class symbols
T2 construct: Blood was drawn from female CD1 mice (9 to 10 weeks) by cardiac puncture; from tissue; host or cells: whole blood of female CD1 mice, LPS-primed, ATP-stimulated
T2 sequence (Q8R4B8 whole entry): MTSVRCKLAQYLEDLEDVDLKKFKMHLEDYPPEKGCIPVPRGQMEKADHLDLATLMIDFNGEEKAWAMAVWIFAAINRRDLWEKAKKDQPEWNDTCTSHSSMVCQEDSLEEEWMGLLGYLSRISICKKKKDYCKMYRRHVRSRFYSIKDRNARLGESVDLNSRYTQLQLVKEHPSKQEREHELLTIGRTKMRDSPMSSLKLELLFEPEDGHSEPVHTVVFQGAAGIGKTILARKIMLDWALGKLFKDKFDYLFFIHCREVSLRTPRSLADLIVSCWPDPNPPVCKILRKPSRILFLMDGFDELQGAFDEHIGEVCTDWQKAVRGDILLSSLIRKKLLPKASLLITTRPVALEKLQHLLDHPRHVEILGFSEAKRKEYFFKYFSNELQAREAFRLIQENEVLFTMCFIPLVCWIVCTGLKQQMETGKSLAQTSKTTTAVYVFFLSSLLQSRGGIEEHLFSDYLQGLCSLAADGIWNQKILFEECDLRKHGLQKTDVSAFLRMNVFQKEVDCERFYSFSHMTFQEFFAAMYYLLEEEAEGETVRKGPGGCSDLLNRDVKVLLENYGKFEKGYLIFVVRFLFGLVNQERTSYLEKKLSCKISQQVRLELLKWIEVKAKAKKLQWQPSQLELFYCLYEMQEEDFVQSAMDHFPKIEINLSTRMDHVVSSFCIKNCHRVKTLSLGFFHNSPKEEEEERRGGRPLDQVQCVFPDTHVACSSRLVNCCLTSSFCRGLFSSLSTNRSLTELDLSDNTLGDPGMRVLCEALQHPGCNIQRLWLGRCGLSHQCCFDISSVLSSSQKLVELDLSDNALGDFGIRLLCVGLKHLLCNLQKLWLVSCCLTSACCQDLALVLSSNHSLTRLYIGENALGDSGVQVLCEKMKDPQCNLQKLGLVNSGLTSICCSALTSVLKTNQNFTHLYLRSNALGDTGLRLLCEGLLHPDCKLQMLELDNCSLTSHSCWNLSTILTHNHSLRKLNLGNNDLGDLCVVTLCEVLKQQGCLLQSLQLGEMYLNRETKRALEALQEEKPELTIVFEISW
Description: Reagents: The following reagents were used: blood collection tubes (Heparin); U-bottom 96-well tissue culture (Falcon 353077); HBSS for LPS, ATP and compound dilutions (Gibco 24020-117); and LPS, E. coli serotype 026:B6 (Sigma L-2654).
Mouse IL-1b MSD assay: Blood was drawn from female CD1 mice (9 to 10 weeks) by cardiac puncture. Blood was plated (135 μL) per well in 96-well U-bottom plates. 7.5 μL of 20× LPS (20 μg/mL, final concentration of 1 μg/mL) was added and mixed by gentle pipetting, and the mixture was incubated in a TC incubator for five hours. 7.5 μL of 20× compound or vehicle per well was added and mixed by gentle pipetting. Compounds were diluted 1/50 in HBSS to prepare a 20× dilution curve in 2% DMSO. The mixture was incubated for 30 minutes in a TC incubator with shaking (450 rpm). 5 μl of 31× ATP (155 mM, final concentration of 5 mM) was added and mixed by gentle pipetting. The mixture was incubated in a TC incubator for 30 minutes with shaking (450 rpm). The plate was centrifuged for 10 minutes at 800×g and ˜70 μL of plasma was removed. Plasma was frozen if required. Mouse IL-1b was analyzed with IL-1b MSD assay (K152TUK). […]
mWB IL-1β Assay: A represents an IC50 value <0.3 μM; B represents an IC50 value ≥0.3 μM and <0.5 μM; C represents an IC50 value ≥0.5 μM and <1.0 μM; D represents an IC50 value ≥1.0 μM.

human NLRP3 [2] = biological target: T1, human NLRP3; assay: Human PBMC NLRP3 Assay (IL-1β release); design: Human PBMCs (Normal): iXCells Cat #10HU-003; host or cells: human PBMCs (normal donors), LPS-primed, nigericin-stimulated; conditions: human PBMCs
Description: Reagents: Human PBMCs (Normal): iXCells Cat #10HU-003; RPMI 1640 medium (ATCC modification): ThermoFisher Cat #A1049101 (Complete Media: 10% FBS, 1% Pen/Strep; Assay Media: 1% Pen/Strep; 75 cm^2 cell culture flask: Corning Cat #430641U; 96-well cell culture plates: VWR Cat #10062-900; LPS (E. coli 026:B6): Sigma Cat #L2654, stock 5 mg/mL in PBS; Nigericin sodium salt: Sigma Cat #N7143, stock 5 mg/mL (6.7 mM) in ethanol.
Cryopreserved PBMCs (10×10^6 cells/vial) were rapidly thawed in a 37° C. water bath for 2 min and transferred in 10 mL Complete Media. Cells were then centrifuged at 1200 RPM for 5 min, resuspended in 40 mL of Complete Media, transferred in a 75 cm^2 cell culture flask and incubated overnight at 37° C. with 5% CO2. The next day, PBMCs were centrifuged, resuspended in 30 mL Assay Media (˜3.3×10^5 cells/mL) and distributed at 100 μL/well in a 96-well cell culture plate. 50 μl of Assay Media containing 300 ng/ml of LPS was then added to each well except for the untreated control wells (50 μl Assay Media without LPS). Cells were then primed with LPS for 4 h at 37° C. with 5% CO2. A concentration response curve (CRC) was prepared of 500× test compound in 100% dimethyl sulfoxide (DMSO). The CRC was then diluted 1:25 in Assay Media and then further diluted 1:5 in Assay Media resulting in a final 4× CRC in 0.8% DMSO/Assay Media. 50 μL/well of 4× test compound CRC or vehicle (0.8% DMSO/Assay Media) was then transferred into each well and subsequently incubated for 30 min at 37° C. with 5% CO2. Cells were stimulated by adding 4 μL of 500 μM Nigericin, for 1 h at 37° C. with 5% CO2 Plates were then centrifuged at 1200 RPM for 5 min and 100 μl of the media was transferred to a clean 96-well storage plate and stored at −80° C. until analyzed. Cytokine measurements were performed using the mesoscale platform. Compounds were added 30 minutes before priming the cells with LPS when TNFα was required to be quantified in the cytokine panel to confirm selectivity.
Human PBMC NLRP3 Assay: A represents an IC50 value <0.3 μM; B represents an IC50 value ≥0.3 μM and <0.5 μM; C represents an IC50 value ≥0.5 μM and <1.0 μM; D represents an IC50 value >1.0 μM and <10 μM; E represents an IC50 value >10 μM.

[3] = LPS priming 4 h, nigericin stimulation 1 h, class symbols
[4] = LPS priming, nigericin stimulation, numeric values of Tables C1-C4

T1 sequence (Q96P20 whole entry): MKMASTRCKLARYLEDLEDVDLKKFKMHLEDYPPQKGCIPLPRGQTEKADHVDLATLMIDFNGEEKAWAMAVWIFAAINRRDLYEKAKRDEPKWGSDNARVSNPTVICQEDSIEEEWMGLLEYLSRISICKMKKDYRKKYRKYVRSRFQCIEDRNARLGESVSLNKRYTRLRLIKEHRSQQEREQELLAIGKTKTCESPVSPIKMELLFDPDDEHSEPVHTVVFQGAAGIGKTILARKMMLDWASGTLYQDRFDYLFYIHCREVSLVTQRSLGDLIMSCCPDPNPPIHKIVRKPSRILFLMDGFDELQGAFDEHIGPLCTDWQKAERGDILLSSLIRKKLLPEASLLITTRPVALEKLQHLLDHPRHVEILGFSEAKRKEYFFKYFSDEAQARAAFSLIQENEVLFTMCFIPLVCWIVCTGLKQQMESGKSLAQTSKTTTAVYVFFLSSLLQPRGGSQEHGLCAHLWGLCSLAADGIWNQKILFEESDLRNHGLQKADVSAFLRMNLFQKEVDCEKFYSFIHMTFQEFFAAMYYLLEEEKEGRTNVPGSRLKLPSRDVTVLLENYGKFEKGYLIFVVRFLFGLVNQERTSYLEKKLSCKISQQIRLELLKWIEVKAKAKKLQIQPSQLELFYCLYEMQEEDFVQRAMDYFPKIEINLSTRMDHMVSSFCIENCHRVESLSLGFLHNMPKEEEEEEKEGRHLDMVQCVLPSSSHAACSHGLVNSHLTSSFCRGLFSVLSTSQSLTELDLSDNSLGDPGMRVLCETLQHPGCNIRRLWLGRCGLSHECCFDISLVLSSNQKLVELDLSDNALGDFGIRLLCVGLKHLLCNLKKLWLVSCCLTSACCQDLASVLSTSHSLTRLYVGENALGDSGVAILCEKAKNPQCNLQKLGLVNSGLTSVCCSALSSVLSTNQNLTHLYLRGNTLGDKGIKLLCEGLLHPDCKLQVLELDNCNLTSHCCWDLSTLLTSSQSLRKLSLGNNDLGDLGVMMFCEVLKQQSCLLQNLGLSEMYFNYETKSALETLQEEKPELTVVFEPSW

Compound | IC50 (human NLRP3 [1]) [nM] | IC50 (mouse NLRP3) [nM] | IC50 (human NLRP3 [2]; [3]) [nM] | IC50 (human NLRP3 [2]; [4]) [nM]
C[C@H]1C[C@@H](NC(=O)CN2C(=O)C(C)(C)c3cc(Br)cc(O)c32)CN(c2nnn[nH]2)C1 [Compound 26, 2-(5-bromo-7-hydroxy-3,3-dimethyl-2-oxoindolin-1-yl)-N-((3R,5S)-5-methyl-1-(1H-tetrazol-5-yl)piperidin-3-yl)acetamide] |  | 500 to 1000 |  | 
CC1(C)C(=O)N(CC(=O)NCCCC(=O)O)c2c(F)cc(Br)cc21 [Compound 24, 4-(2-(5-bromo-7-fluoro-3,3-dimethyl-2-oxoindolin-1-yl)acetamido)butanoic acid] |  | < 300 | < 300 | 20
CC1(C)C(=O)N(CC(=O)NCCCC(=O)O)c2ccc(C3CC3)c(F)c21 [Compound 56, 4-(2-(5-cyclopropyl-4-fluoro-3,3-dimethyl-2-oxoindolin-1-yl)acetamido)butanoic acid] | 500 to 1000 | < 300 | < 300 | 46
C[C@@H](CCC(=O)O)NC(=O)CN1C(=O)C(C)(C)c2c(F)c(C3CC3)cc(F)c21 [Compound 59A, (S)-4-(2-(5-cyclopropyl-4,7-difluoro-3,3-dimethyl-2-oxoindolin-1-yl)acetamido)pentanoic acid] | 300 to 500 | < 300 | < 300 | 
CC1(C)C(=O)N(CC(=O)NCCCc2nnn[nH]2)c2ccc(Br)cc21 [Compound 1, N-(3-(1H-tetrazol-5-yl)propyl)-2-(5-bromo-3,3-dimethyl-2-oxoindolin-1-yl)acetamide] | > 1000 | < 300 | < 300 | 
C[C@@H](CC(=O)O)[C@H](NC(=O)CN1C(=O)C(C)(C)c2c1ccc(C1CC1)c2F)C1CC1 (single isomer, unassigned) [Compound 60A*] | 500 to 1000 | < 300 | < 300 | 
CC1(C)C(=O)N(CC(=O)NCCCC(=O)O)c2c(O)cc(Br)cc21 [Compound 16, 4-(2-(5-bromo-7-hydroxy-3,3-dimethyl-2-oxoindolin-1-yl)acetamido)butanoic acid] | 500 to 1000 | 500 to 1000 | < 300 | 
CC1(C)C(=O)N(CC(=O)NCCCc2nnn[nH]2)c2c(F)cc(C3CC3)c(F)c21 [Compound 65, N-(3-(1H-tetrazol-5-yl)propyl)-2-(5-cyclopropyl-4,7-difluoro-3,3-dimethyl-2-oxoindolin-1-yl)acetamide] | 500 to 1000 | < 300 | < 300 | 15
CC1(C)C(=O)N(CC(=O)NCCCC(=O)O)c2c(F)cc(C3CC3)cc21 [Compound 66, 4-(2-(5-cyclopropyl-7-fluoro-3,3-dimethyl-2-oxoindolin-1-yl)acetamido)butanoic acid] | < 300 | < 300 | < 300 | 24
CC1(C)C(=O)N(CC(=O)N[C@@H]2CCCN(c3nnn[nH]3)C2)c2ccc(Br)cc21 [Compound 11A, (R)-N-(1-(1H-tetrazol-5-yl)piperidin-3-yl)-2-(5-bromo-3,3-dimethyl-2-oxoindolin-1-yl)acetamide] | > 1000 | < 300 |  | 
CC1(C)C(=O)N(CC(=O)NCCCC(=O)O)c2ccc(Br)cc21 [Compound 2, 4-(2-(5-bromo-3,3-dimethyl-2-oxoindolin-1-yl)acetamido)butanoic acid] | > 1000 | < 300 | < 300 | 150
CC1(C)C(=O)N(CC(=O)NCCCC(=O)O)c2c(F)cc(C3CC3)c(F)c21 [Compound 57, 4-(2-(5-cyclopropyl-4,7-difluoro-3,3-dimethyl-2-oxoindolin-1-yl)acetamido)butanoic acid] | 300 to 500 | < 300 | < 300 | 59

The remaining lines, values ahead:

IC50 (human NLRP3 [1]) [nM] | IC50 (mouse NLRP3) [nM] | IC50 (human NLRP3 [2]; [3]) [nM] | IC50 (human NLRP3 [2]; [4]) [nM] | Compound
300 to 500 | < 300 |  |  | CC1(C)C(=O)N(CC(=O)NC[C@H](F)CC(=O)O)c2c(F)cc(C3CC3)c(F)c21 [Compound 62A, (R)-4-(2-(5-cyclopropyl-4,7-difluoro-3,3-dimethyl-2-oxoindolin-1-yl)acetamido)-3-fluorobutanoic acid]
500 to 1000 | < 300 | < 300 |  | CC1(C)C(=O)N(CC(=O)NC[C@H](F)CC(=O)O)c2ccc(C3CC3)c(F)c21 [Compound 63A, (R)-4-(2-(5-cyclopropyl-4-fluoro-3,3-dimethyl-2-oxoindolin-1-yl)acetamido)-3-fluorobutanoic acid]
300 to 500 | < 300 |  |  | C[C@@H](CNC(=O)CN1C(=O)C(C)(C)c2c(F)c(C3CC3)cc(F)c21)CC(=O)O [Compound 61A, (R)-4-(2-(5-cyclopropyl-4,7-difluoro-3,3-dimethyl-2-oxoindolin-1-yl)acetamido)-3-methylbutanoic acid]
500 to 1000 | < 300 | < 300 |  | CC1(C)C(=O)N(CC(=O)NC[C@H](F)CC(=O)O)c2c(F)cc(C(F)(F)F)c(F)c21 [Compound 64A, (R)-4-(2-(4,7-difluoro-3,3-dimethyl-2-oxo-5-(trifluoromethyl)indolin-1-yl)acetamido)-3-fluorobutanoic acid]
